Assay results as given in patent publication US20100022491A1, “4-HYDROXY-2-OXO-2,3-DIHYDRO-1,3-BENZOTHIAZOL-7YL COMPOUNDS FOR MODULATION OF B2-ADRENORECEPTOR ACTIVITY” (ASTRAZENECA AB, priority 2006, published 2010).
Structures can show the parent of a compound that is named as a salt.

Experiments:
Adrenergic β2 = target: T1, Adrenergic β2 (Homo sapiens, UniProt P07550); experiment: Adrenergic β2 mediated cAMP production in H292 cells; format: cell-based; conditions: for EC50 / β2 pEC50: H292 cells, cAMP by AlphaScreen, 60 minutes at room temperature, rolipram 300 μM; for EC50: read-out: β2 pEC50 (converted); for β2 Int Act: Intrinsic Activity as a fraction relative to the maximum activity determined for formoterol
T1 construct: Adherent H292 cells were removed from tissue culture flasks; endogenous in cells; host or cells: H292 cells
Method in brief: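 cAMP accumulation in adherent H292 cells, measured by AlphaScreen and calibrated with cAMP standards. Compounds incubated 60 min at room temperature after 10 min rolipram (final 300 μM; vehicle 1.6% DMSO). pEC50 and intrinsic activity, as a fraction of formoterol's maximum, from four-parameter logistic fit.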

[1] = target: T2, recombinant human adrenergic beta 1 receptors (Homo sapiens, UniProt P08588); experiment: Adrenergic β1 selectivity binding assay ([125I]-Iodocyanopindolol); conditions: inhibition of [125I]-Iodocyanopindolol (0.036 nM) binding; for IC50: read-out: β1 bind p IC50 (converted)
T2 construct: purchased Euroscreen
Method in brief: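 Displacement of [^125I]-Iodocyanopindolol (0.036 nM final) from human β1 receptor membranes, 2 hours at room temperature, pH 7.4 HEPES/EDTA/NaCl buffer. After filtration, scintillation counting; NSB set with 10 μM propranolol and subtracted. Four-parameter logistic fitting gave pIC50.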

T2 sequence (P08588 whole entry): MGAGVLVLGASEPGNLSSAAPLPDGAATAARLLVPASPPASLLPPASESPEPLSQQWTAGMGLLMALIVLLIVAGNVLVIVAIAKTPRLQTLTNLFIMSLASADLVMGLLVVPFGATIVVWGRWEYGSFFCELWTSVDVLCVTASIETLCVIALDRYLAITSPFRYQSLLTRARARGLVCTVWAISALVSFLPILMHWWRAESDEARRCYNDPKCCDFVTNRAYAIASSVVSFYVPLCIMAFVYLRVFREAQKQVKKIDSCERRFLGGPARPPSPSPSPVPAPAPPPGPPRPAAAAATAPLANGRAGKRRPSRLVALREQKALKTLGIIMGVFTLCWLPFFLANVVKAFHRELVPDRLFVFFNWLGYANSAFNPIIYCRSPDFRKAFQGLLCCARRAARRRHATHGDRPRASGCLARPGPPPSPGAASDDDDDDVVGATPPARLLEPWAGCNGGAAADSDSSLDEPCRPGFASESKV
T1 sequence (P07550 whole entry): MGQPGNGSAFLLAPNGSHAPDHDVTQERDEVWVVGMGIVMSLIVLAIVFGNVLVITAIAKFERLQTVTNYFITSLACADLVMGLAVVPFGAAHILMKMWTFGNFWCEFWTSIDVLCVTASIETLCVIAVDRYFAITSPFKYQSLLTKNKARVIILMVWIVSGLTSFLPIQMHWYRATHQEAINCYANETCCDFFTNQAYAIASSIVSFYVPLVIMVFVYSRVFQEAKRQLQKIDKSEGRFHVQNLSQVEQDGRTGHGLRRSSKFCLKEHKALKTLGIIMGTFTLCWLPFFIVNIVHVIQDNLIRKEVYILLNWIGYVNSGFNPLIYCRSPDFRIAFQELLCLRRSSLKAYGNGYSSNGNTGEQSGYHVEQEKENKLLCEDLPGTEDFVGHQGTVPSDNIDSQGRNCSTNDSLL

Row | SMILES | EC50 (Adrenergic β2) [nM] | β2 Int Act (Adrenergic β2) | IC50 [1] [nM] | β2 pEC50 (Adrenergic β2) | β1 bind p IC50 [1]
1 | COc1ccc(CCNCCC(=O)N(CCNCCc2ccc(O)c3[nH]c(=O)sc23)C2CCCCC2)cc1 [Example 68, N^1-Cyclohexyl-N^1-(2-{[2-(4-hydroxy-2-oxo-2,3-dihydro-1,3-benzothiazol-7-yl)ethyl]amino}ethyl)-N^3-[2-(4-methoxyphenyl)ethyl]-β-alaninamide bis-trifluoroacetic acid salt] | 10 | 0.68 | 3980 | – | –
2 | CCCC(CCC)N(CCNCCc1ccc(O)c2[nH]c(=O)sc12)C(=O)CCNCCc1cccc(F)c1 [Example 63, N^3-[2-(3-Fluorophenyl)ethyl]-N^1-(2-{[2-(4-hydroxy-2-oxo-2,3-dihydro-1,3-benzothiazol-7-yl)ethyl]amino}ethyl)-N^1-(1-propylbutyl)-β-alaninamide bis-trifluoroacetic acid salt] | 79.4 | 0.93 | 2510 | – | –
3 | CC(CN(C(=O)CCNCCc1ccccc1)C1CCCCC1)NCCc1ccc(O)c2[nH]c(=O)sc12 (stereo not drawn) [Example 105, N-Cyclohexyl-N-(2-{[2-(4-hydroxy-2-oxo-2,3-dihydro-1,3-benzothiazol-7-yl)ethyl]amino}propyl)-N^3-(2-phenylethyl)-β-alaninamide bis-trifluoroacetic acid salt] | 6.31 | 0.86 | 1580 | – | –
4 | COc1cccc(CCNCCC(=O)N(CCNCCc2ccc(O)c3[nH]c(=O)sc23)CC(C)(C)C)c1 [Example 43, N^1-(2,2-Dimethylpropyl)-N^1-(2-{[2-(4-hydroxy-2-oxo-2,3-dihydro-1,3-benzothiazol-7-yl)ethyl]amino}ethyl)-N^3-[2-(3-methoxyphenyl)ethyl]-β-alaninamide bis-trifluoroacetic acid salt] | 10 | 0.67 | 5010 | – | –
5 | O=C(CCNCCc1ccc(O)cc1)N(CCNCCc1ccc(O)c2[nH]c(=O)sc12)C1CCCCC1 [Example 34, N-Cyclohexyl-N-(2-{[2-(4-hydroxy-2-oxo-2,3-dihydro-1,3-benzothiazol-7-yl)ethyl]amino}ethyl)-N^3-[2-(4-hydroxyphenyl)ethyl]-β-alaninamide bis-trifluoroacetic acid salt] | 2 | 0.75 | 7940 | – | –
6 | O=C(CCNCCc1cc(F)cc(F)c1)N(CCNCCc1ccc(O)c2[nH]c(=O)sc12)C1CCCCC1 [Example 78, N^1-Cyclohexyl-N^3-[2-(3,5-difluorophenyl)ethyl]-N^1-(2-{[2-(4-hydroxy-2-oxo-2,3-dihydro-1,3-benzothiazol-7-yl)ethyl]amino}ethyl)-β-alaninamide bis-trifluoroacetic acid salt] | 3.16 | 0.91 | 3980 | – | –
7 | O=C(CCNCCc1ccccc1)N(CCNCCc1ccc(O)c2[nH]c(=O)sc12)C1CCCCCC1 [Example 23, N-Cycloheptyl-N-(2-{[2-(4-hydroxy-2-oxo-2,3-dihydro-1,3-benzothiazol-7-yl)ethyl]amino}ethyl)-N^3-(2-phenylethyl)-β-alaninamide bis-trifluoroacetic acid salt] | 1 | 0.85 | 3980 | – | –
8 | O=C(CCNCCc1ccccc1)N(CCNCCc1ccc(O)c2[nH]c(=O)sc12)C1CCCC1 [Example 2, N-Cyclopentyl-N-(2-{[2-(4-hydroxy-2-oxo-2,3-dihydro-1,3-benzothiazol-7-yl)ethyl]amino}ethyl)-N^3-(2-phenylethyl)-β-alaninamide bis-trifluoroacetic acid salt] | 3.16 | 1.04 | 5010 | – | –
9 | O=C(CCNCCc1ccc(Cl)cc1)N(CCNCCc1ccc(O)c2[nH]c(=O)sc12)C1CCCCC1 [Example 13, N^3-[2-(4-Chlorophenyl)ethyl]-N-cyclohexyl-N-(2-{[2-(4-hydroxy-2-oxo-2,3-dihydro-1,3-benzothiazol-7-yl)ethyl]amino}ethyl)-β-alaninamide bis-trifluoroacetic acid salt] | 5.01 | 0.71 | 3160 | – | –
10 | O=C(CCNCCc1cccc(F)c1)N(CCNCCc1ccc(O)c2[nH]c(=O)sc12)C1CCCCC1 [Example 15, N-Cyclohexyl-N^3-[2-(3-fluorophenyl)ethyl]-N-(2-{[2-(4-hydroxy-2-oxo-2,3-dihydro-1,3-benzothiazol-7-yl)ethyl]amino}ethyl)-β-alaninamide bis-trifluoroacetic acid salt] | – | – | – | 8.6 | 5.2
11 | O=C(CCNCCc1cccc(F)c1F)N(CCNCCc1ccc(O)c2[nH]c(=O)sc12)C1CCCCC1 [Example 81, N^1-Cyclohexyl-N^3-[2-(2,3-difluorophenyl)ethyl]-N^1-(2-{[2-(4-hydroxy-2-oxo-2,3-dihydro-1,3-benzothiazol-7-yl)ethyl]amino}ethyl)-β-alaninamide bis-trifluoroacetic acid salt] | 2.51 | 0.89 | 6310 | – | –
12 | O=C(CCNCCc1ccc2c(c1)OCO2)N(CCNCCc1ccc(O)c2[nH]c(=O)sc12)C1CCCCC1 [Example 76, N^3-[2-(1,3-Benzodioxol-5-yl)ethyl]-N^1-cyclohexyl-N^1-(2-{[2-(4-hydroxy-2-oxo-2,3-dihydro-1,3-benzothiazol-7-yl)ethyl]amino}ethyl)-β-alaninamide bis-trifluoroacetic acid salt] | 6.31 | 0.68 | 3980 | – | –
13 | O=C(CCNCCc1ccc(Cl)cc1)N(CCNCCc1ccc(O)c2[nH]c(=O)sc12)C1CCC(F)(F)CC1 [Example 48, N^3-[2-(4-Chlorophenyl)ethyl]-N^1-(4,4-difluorocyclohexyl)-N^1-(2-{[2-(4-hydroxy-2-oxo-2,3-dihydro-1,3-benzothiazol-7-yl)ethyl]amino}ethyl)-β-alaninamide bis-trifluoroacetic acid salt] | 10 | 0.55 | 2510 | – | –
14 | Cc1cccc(CCNCCC(=O)N(CCNCCc2ccc(O)c3[nH]c(=O)sc23)C2CCCCC2)c1 [Example 14, N-Cyclohexyl-N-(2-{[2-(4-hydroxy-2-oxo-2,3-dihydro-1,3-benzothiazol-7-yl)ethyl]amino}ethyl)-N^3-[2-(3-methylphenyl)ethyl]-β-alaninamide bis-trifluoroacetic acid salt] | 3.98 | 0.84 | 7940 | – | –
15 | O=C(CCNCCc1nc2ccccc2[nH]1)N(CCNCCc1ccc(O)c2[nH]c(=O)sc12)C1CCCCC1 [Example 77, N^3-[2-(1H-Benzimidazol-2-yl)ethyl]-N^1-cyclohexyl-N^1-(2-{[2-(4-hydroxy-2-oxo-2,3-dihydro-1,3-benzothiazol-7-yl)ethyl]amino}ethyl)-β-alaninamide tris-trifluoroacetic acid salt] | 158 | 0.54 | 6310 | – | –
16 | O=C(CCNC[C@H](O)c1ccccc1)N(CCNCCc1ccc(O)c2[nH]c(=O)sc12)C1CCCCC1 [Example 75, N^1-Cyclohexyl-N^1-(2-{[2-(4-hydroxy-2-oxo-2,3-dihydro-1,3-benzothiazol-7-yl)ethyl]amino}ethyl)-N^3-[(2R)-2-hydroxy-2-phenylethyl]-β-alaninamide bis-trifluoroacetic acid salt] | 10 | 0.91 | 631 | – | –
17 | O=C(CCNCCc1cccc(F)c1)N(CCNCCc1ccc(O)c2[nH]c(=O)sc12)C1CCCCCC1 [Example 95, N-Cycloheptyl-N^3-[2-(3-fluorophenyl)ethyl]-N-(2-{[2-(4-hydroxy-2-oxo-2,3-dihydro-1,3-benzothiazol-7-yl)ethyl]amino}ethyl)-β-alaninamide dihydromide salt] | – | – | – | 8.6 | 5.5
18 | C[C@H](CNCCC(=O)N(CCNCCc1ccc(O)c2[nH]c(=O)sc12)C1CCCC1)c1ccccc1 [Example 31, N-cyclopentyl-N-(2-{[2-(4-hydroxy-2-oxo-2,3-dihydro-1,3-benzothiazol-7-yl)ethyl]amino}ethyl)-N^3-[(2S)-2-phenylpropyl]-β-alaninamide bis-trifluoroacetic acid salt] | 10 | 0.92 | 6310 | – | –
19 | CC(C)(C)CN(CCNCCc1ccc(O)c2[nH]c(=O)sc12)C(=O)CCNCCc1cccc(Cl)c1 [Example 7, N^3-[2-(3-Chlorophenyl)ethyl]-N-(2,2-dimethylpropyl)-N-(2-{[2-(4-hydroxy-2-oxo-2,3-dihydro-1,3-benzothiazol-7-yl)ethyl]amino}ethyl)-β-alaninamide bis-trifluoroacetic acid salt] | 3.98 | 0.68 | 3160 | – | –
20 | O=C(CCNCCc1cc(F)cc(F)c1)N(CCNCCc1ccc(O)c2[nH]c(=O)sc12)C1CCCCC1 [Example 92, N-Cyclohexyl-N^3-[2-(3,5-difluorophenyl)ethyl]-N-(2-{[2-(4-hydroxy-2-oxo-2,3-dihydro-1,3-benzothiazol-7-yl)ethyl]amino}ethyl)-β-alaninamide dihydrobromide salt] | – | – | – | 8.5 | 5.4
21 | O=C(CCNCCc1ccc(Cl)cc1)N(CCNCCc1ccc(O)c2[nH]c(=O)sc12)C1CCCC1 [Example 28, N^3-[2-(4-Chlorophenyl)ethyl]-N-cyclopentyl-N-(2-{[2-(4-hydroxy-2-oxo-2,3-dihydro-1,3-benzothiazol-7-yl)ethyl]amino}ethyl)-β-alaninamide bis-trifluoroacetic acid salt] | 10 | 0.87 | 6310 | – | –
